Measurements as given in ChEMBL document CHEMBL5244275, “Geminal Diheteroatomic Motifs: Some Applications of Acetals, Ketals, and Their Sulfur and Nitrogen Homologues in Medicinal Chemistry and Drug Design” (J Med Chem, 2021).
In brackets after ≈: the same amount, converted by molar mass.

How the values were obtained:
[1] = Aqueous stability of the compound assessed as acid-catalyzed decomposition by measuring rate constant; type: physicochemical; conditions: buffer
[2] = Inhibition of Calcium channel (unknown origin); design: species or system Homo sapiens
Escherichia coli [3] = experiment: Inhibition of Escherichia coli beta-lactamase at 1 uM relative to control
[4] = target: T1, Neutrophil elastase (Homo sapiens) (UniProt P08246); experiment: Time-dependent inhibition of human leukocyte elastase assessed as observed binding constant
T1 sequence (whole entry): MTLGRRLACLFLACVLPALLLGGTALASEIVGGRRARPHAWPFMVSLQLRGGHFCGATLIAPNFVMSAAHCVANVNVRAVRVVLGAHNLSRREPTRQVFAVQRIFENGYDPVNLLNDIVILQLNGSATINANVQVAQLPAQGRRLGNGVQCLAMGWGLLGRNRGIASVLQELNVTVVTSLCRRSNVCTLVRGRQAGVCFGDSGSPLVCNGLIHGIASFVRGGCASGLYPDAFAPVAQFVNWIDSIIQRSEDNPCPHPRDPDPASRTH

[5] = Stability of the compound at pH 8 assessed as compound hydrolysis by measuring half-life; type: physicochemical; conditions: buffer
Hepatitis C virus = experiment: Antiviral activity against Hepatitis C virus genotype 1a harboring NS5A Y93H mutant; type: functional, organism-based, Hepacivirus hominis
[6] = Stability of the compound assessed as acid hydrolysis by measuring half-life; type: physicochemical
[7] = Dissociation constant, pKa of the compound; type: physicochemical
Plasmodium falciparum = experiment: Antiplasmodial activity against Plasmodium falciparum FcM29 assessed as inhibition of plasmodial growth; type: functional, organism-based
Candida albicans [8] = experiment: Fungicidal activity against Candida albicans; type: functional
Candida albicans [9] = experiment: Antifungal activity against Candida albicans GS; type: functional, organism-based
[10] = target: Human immunodeficiency virus type 1 protease (Human immunodeficiency virus 1, UniProt Q72874); experiment: Inhibition of HIV-1 protease
[11] = Stability of the compound at pH 1 assessed as half-life; type: physicochemical; conditions: buffer
[12] = tested on: Human immunodeficiency virus 1; experiment: microbe, parasite or virus in culture; conditions: Human immunodeficiency virus 1, LAV
[13] = Stability of the compound at pH 7.4 aqueous phosphate buffer assessed as half-life; type: physicochemical
Staphylococcus aureus = experiment: Antibacterial activity against Staphylococcus aureus 01A0785 assessed as inhibition of bacterial growth by microdilution method; type: functional
Escherichia coli [14] = experiment: Antibacterial activity against Escherichia coli 51A0150 assessed as inhibition of bacterial growth by microdilution method; type: functional
Pasteurella multocida = experiment: Antibacterial activity against Pasteurella multocida 59A0067 assessed as inhibition of bacterial growth by microdilution method; type: functional
[15] = Aqueous solubility of compound; type: physicochemical; conditions: aqueous (not further specified)
[16] = Oral bioavailability in rat; type: ADME, organism-based; conditions: in vivo
[17] = Oral bioavailability in human; type: ADME, organism-based; conditions: in vivo
[18] = Stability of the compound in 20% aqueous dioxane solution at 30 degreeC assessed as compound hydrolysis by measuring rate constant; type: physicochemical; conditions: buffer
[19] = Inhibition of Leukotriene B4 production in human blood Polymorphonuclear neutrophil cells; type: functional, tissue-based
[20] = Cmax in rat plasma at 20 mg/kg, po; type: ADME, organism-based; design: dose 20 mg/kg, route po

Structure (SMILES): Cc1ccc(C2OCCS2)cc1 (stereo not drawn)
- K [1]: 0.146 min⁻¹

Structure (SMILES): C[C@@H](O[C@H]1OCCN(Cc2n[nH]c(=O)[nH]2)[C@H]1c1ccc(F)cc1)c1cc(C(F)(F)F)cc(C(F)(F)F)c1 [APREPITANT]
- IC50 [2]: > 1000 nM

Structure (SMILES): CC1(C)[C@H](C(=O)O)N2C(=O)/C(=C/c3ccccc3)[C@H]2S1(=O)=O
- inhibition (Escherichia coli [3]): 28%

Structure (SMILES): CC[C@@H]1C(=O)N(C(C)=O)[C@H]1OC(C)=O (racemic)
- K [4]: 4 10^3/M/s
- half-life [5]: 2.4 h

Structure (SMILES): COC(=O)N[C@H](C(=O)N1CCC[C@H]1c1ncc(-c2ccc3c(c2)OCn2c-3cc3cc(-c4cnc([C@@H]5CCCN5C(=O)[C@@H](NC(=O)OC)C(C)C)[nH]4)ccc32)[nH]1)C(C)C
- EC50 (Hepatitis C virus): 5 nM

Structure (SMILES): Nc1ncnc2c1ncn2[C@@H]1O[C@H](CO)C[C@H]1F
- half-life [6]: > 1 min

Structure (SMILES): FC(F)(F)c1cc(CO[C@H]2CCCN[C@H]2c2ccccc2)cc(C(F)(F)F)c1
- IC50 [2]: 780 nM
- pKa [7]: 8.3

Structure (SMILES): COC(=O)N[C@H](C(=O)N1CCC[C@H]1c1ncc(-c2cc(F)c3c(c2)O[C@@H](c2cnc(C4CC4)s2)n2c-3cc3cc(-c4cnc([C@@H]5CCCN5C(=O)[C@@H](NC(=O)OC)C(C)C)[nH]4)ccc32)[nH]1)C(C)C [RUZASVIR]
- EC50 (Hepatitis C virus): 0.06 nM

Structure (SMILES): CC(C)C1=C[C@H]2OC3(CCC(N[C@H]4CC[C@H](Nc5ccnc6cc(Cl)ccc56)CC4)CC3)OO[C@@]2(C)CC1 (stereo partly drawn)
- IC50 (Plasmodium falciparum): 18 nM

Structure (SMILES): CC[C@H](C)C[C@H](C)CCCCCCCCC(=O)N[C@H]1C[C@@H](O)[C@@H](OCCN)NC(=O)[C@@H]2[C@@H](O)CCN2C(=O)[C@H]([C@H](O)CC(N)=O)NC(=O)[C@H]([C@H](O)[C@@H](O)c2ccc(O)cc2)NC(=O)[C@@H]2C[C@@H](O)CN2C(=O)[C@H]([C@@H](C)O)NC1=O
- MFC (Candida albicans [8]): 0.25 µg/mL (≈ 0.226 µM)
- IC50 (Candida albicans [9]): 10 nM

Structure (SMILES): COc1ccc(S(=O)(=O)N(CC(C)C)C[C@@H](O)[C@H](Cc2ccccc2)NC(=O)O[C@H]2CO[C@H]3O[C@@H]4OCC[C@@H]4[C@H]32)cc1
- IC50 [10]: 1.8 nM

Structure (SMILES): O=c1ccn([C@H]2C=C[C@@H](CO)O2)c(=O)[nH]1
- half-life [11]: 15 h

Structure (SMILES): O=[N+]([O-])c1ccc(C2OCCS2)cc1 (stereo not drawn)
- K [1]: 0.00048 min⁻¹

Structure (SMILES): CC(C)(C)NC(=O)[C@@H]1C[C@@H]2CCCC[C@@H]2CN1C[C@@H](O)[C@H](Cc1ccccc1)NC(=O)O[C@H]1CC[C@H]2OCC[C@@H]12
- IC50 [10]: 17 nM

Structure (SMILES): COC(=O)N[C@H](C(=O)N1CCC[C@H]1c1ncc(-c2ccc(-c3cc4cc(-c5cnc([C@@H]6CCCN6C(=O)[C@@H](NC(=O)OC)C(C)C)[nH]5)ccc4o3)cc2)[nH]1)C(C)C
- EC50 (Hepatitis C virus): 27 nM

Structure (SMILES): Nc1nc(=O)n([C@H]2CS[C@@H](CO)O2)cc1F
- EC50 [12]: 840 nM

Structure (SMILES): CCCCC[C@H](O)/C=C/[C@H]1O[C@@H]2O[C@@H]([C@H]2F)[C@@H]1C/C=C\CCCC(=O)O
- half-life [13]: 480 h

Structure (SMILES): CC[C@@H]1C[C@H](O)[C@@H](C)NC[C@H](C)C[C@@]2(C)OC3(CCN(C(=O)c4ccco4)CC3)O[C@@H]([C@H](C)[C@H]2O[C@@H]2O[C@H](C)C[C@H](N(C)C)[C@H]2O)[C@@H](C)C(=O)O1
- MIC (Staphylococcus aureus): 0.78 µg/mL (≈ 1.08 µM)
- MIC (Escherichia coli [14]): 0.78 µg/mL (≈ 1.08 µM)
- MIC (Pasteurella multocida): 0.05 µg/mL (≈ 0.0693 µM)

Structure (SMILES): O=C1CCC2(CC1)OOC1(O2)C2CC3CC(C2)CC1C3 (stereo not drawn)
- solubility [15]: < 0.001 mg/mL
- bioavailability [16]: < 1%

Structure (SMILES): CC(C)[C@H](N)C(=O)OCC(CO)OCn1cnc2c(=O)nc(N)[nH]c21 (stereo partly drawn) [VALGANCICLOVIR]
- solubility [15]: 70 mg/mL (≈ 198000 µM)
- bioavailability [17]: 65%

Structure (SMILES): Clc1ccc(C2(c3ccc(Cl)cc3)OCCO2)cc1
- K [18]: 3.3 10^-3/M/s

Structure (SMILES): CC[C@@H]1C[C@H](O)[C@@H](C)NC[C@H](C)C[C@@]2(C)OC3(CCN(Cc4ccccc4)CC3)O[C@@H]([C@H](C)[C@H]2O[C@@H]2O[C@H](C)C[C@H](N(C)C)[C@H]2O)[C@@H](C)C(=O)O1
- MIC (Staphylococcus aureus): 0.6 µg/mL (≈ 0.836 µM)
- MIC (Escherichia coli [14]): 0.2 µg/mL (≈ 0.279 µM)
- MIC (Pasteurella multocida): 0.03 µg/mL (≈ 0.0418 µM)

Structure (SMILES): N#Cc1cc(-c2ccoc2)c2ccc(OCc3cccc(C4(O)CCOCC4)n3)cc2c1
- IC50 [19]: 0.6 nM
- bioavailability [16]: 26%
- Cmax [20]: 2000 nM

Structure (SMILES): CC(C)(C)NC(=O)[C@@H]1C[C@@H]2CCCC[C@@H]2CN1C[C@@H](O)[C@H](Cc1ccccc1)NC(=O)O[C@H]1CO[C@H]2CCC[C@H]21
- IC50 [10]: 190 nM

Structure (SMILES): CC[C@@H]1C(=O)N(C(=O)NCc2ccccc2)[C@H]1Oc1ccc(C(=O)O)cc1
- K [4]: 2 10^3/M/s
- half-life [5]: > 80 h

Structure (SMILES): Cc1cn([C@H]2C=C[C@@H](CO)O2)c(=O)[nH]c1=O [STAVUDINE]
- half-life [11]: 26 h
